Where only a bound is given, the exact number is not on record here.

Assay [1] has as its target T1, Prostaglandin G/H synthase 1 (Rattus norvegicus, UniProt Q63921).
T1 sequence (Q63921 whole entry): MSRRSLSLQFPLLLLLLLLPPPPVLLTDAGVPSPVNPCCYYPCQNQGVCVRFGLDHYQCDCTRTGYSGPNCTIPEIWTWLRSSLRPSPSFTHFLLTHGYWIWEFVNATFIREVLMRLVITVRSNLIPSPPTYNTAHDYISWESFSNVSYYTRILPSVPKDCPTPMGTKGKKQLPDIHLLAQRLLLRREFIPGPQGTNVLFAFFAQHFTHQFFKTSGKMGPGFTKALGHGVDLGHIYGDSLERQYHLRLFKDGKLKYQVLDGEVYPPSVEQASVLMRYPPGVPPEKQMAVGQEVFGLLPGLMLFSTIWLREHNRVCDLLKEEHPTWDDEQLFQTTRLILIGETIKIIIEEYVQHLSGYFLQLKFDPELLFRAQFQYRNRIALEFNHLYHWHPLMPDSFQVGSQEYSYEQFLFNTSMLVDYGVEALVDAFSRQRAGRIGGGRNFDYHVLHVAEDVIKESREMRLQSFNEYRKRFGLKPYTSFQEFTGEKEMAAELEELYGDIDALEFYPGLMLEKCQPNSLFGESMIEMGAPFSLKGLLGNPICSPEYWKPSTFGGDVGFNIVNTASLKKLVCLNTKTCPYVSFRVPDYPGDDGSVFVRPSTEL
The class given is functional.

The target of another assay is T2, Thromboxane A2 receptor (Homo sapiens, UniProt P21731).
T2 sequence (P21731 whole entry): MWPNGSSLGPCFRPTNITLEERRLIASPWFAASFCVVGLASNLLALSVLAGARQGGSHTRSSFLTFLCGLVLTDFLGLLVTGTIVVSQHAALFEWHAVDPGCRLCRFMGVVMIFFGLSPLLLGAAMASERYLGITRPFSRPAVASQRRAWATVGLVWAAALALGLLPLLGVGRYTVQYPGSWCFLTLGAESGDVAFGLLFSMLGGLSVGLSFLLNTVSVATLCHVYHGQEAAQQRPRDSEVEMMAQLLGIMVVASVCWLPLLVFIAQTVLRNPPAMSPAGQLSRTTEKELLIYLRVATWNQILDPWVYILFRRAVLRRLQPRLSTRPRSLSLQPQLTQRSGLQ
The assay is classed as functional.

Assay [2] has as its target T3, Bile acid receptor (Homo sapiens, UniProt Q96RI1).
T3 sequence (Q96RI1 whole entry): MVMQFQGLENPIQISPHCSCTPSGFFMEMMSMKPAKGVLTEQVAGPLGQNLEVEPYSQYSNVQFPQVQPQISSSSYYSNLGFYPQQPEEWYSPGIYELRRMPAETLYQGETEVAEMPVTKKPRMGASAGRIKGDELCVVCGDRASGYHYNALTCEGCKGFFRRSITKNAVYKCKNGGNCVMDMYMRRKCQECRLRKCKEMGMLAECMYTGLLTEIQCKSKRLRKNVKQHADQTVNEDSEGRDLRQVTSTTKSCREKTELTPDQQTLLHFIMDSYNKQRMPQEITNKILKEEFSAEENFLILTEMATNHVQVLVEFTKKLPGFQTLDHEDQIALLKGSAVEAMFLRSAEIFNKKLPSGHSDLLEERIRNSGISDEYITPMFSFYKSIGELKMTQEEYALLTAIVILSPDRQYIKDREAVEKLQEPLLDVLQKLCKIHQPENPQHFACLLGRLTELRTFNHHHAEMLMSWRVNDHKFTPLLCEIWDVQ
The class given is functional.

Assay [3] deals with T4, Retinoic acid receptor alpha (Homo sapiens, UniProt P10276).
T4 sequence (P10276 whole entry): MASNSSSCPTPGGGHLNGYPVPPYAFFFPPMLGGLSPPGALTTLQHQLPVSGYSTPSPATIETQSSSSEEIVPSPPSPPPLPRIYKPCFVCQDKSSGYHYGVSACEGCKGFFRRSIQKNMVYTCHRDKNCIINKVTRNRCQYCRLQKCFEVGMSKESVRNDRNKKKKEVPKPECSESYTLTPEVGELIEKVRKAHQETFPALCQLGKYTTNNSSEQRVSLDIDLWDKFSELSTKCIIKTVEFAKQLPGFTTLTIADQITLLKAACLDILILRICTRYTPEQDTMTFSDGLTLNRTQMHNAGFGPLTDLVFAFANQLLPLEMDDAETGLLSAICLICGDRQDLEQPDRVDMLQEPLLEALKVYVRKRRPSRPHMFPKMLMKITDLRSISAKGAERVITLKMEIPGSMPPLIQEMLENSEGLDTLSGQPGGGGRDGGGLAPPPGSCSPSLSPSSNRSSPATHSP
The class given is functional, cell-based.

Assay [4] concerns the target T4, Retinoic acid receptor alpha. The class given is functional, cell-based. The source holds these as a separate data set.
Assay [5] addresses T3, Bile acid receptor. The assay is classed as functional. This is another data set of the same source.
In assay [6] the target is T5, Peroxisome proliferator-activated receptor alpha (Homo sapiens, UniProt Q07869).
T5 sequence (Q07869 whole entry): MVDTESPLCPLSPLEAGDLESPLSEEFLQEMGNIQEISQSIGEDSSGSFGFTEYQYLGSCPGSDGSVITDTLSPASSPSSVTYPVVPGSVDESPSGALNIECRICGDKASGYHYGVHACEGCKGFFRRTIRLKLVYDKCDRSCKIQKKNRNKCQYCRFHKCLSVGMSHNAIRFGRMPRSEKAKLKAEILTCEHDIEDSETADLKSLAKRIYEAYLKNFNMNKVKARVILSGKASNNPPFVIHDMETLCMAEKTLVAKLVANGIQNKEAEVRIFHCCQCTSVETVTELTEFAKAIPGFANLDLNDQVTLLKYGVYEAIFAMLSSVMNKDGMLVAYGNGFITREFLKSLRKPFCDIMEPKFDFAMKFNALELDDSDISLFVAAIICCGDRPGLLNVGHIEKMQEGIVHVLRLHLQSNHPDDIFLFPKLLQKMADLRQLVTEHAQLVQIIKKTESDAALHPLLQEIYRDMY
The class given is functional.

Assay [7] has as its target T3, Bile acid receptor. The class given is functional. The source holds these as a separate data set.
Also: assay procedure not described here.

By AC50 is commonly meant the concentration giving half of the maximal activity seen. As to `COc1ccc(C(Cl)=C(c2ccc(OC)cc2)c2ccc(OC)cc2)cc1` [CHLOROTRIANISENE], the AC50 in assay [1] is 0.0782 µM.
`N=C(N)NC(=O)Cc1c(Cl)cccc1Cl` [GUANFACINE]: on Thromboxane A2 receptor, the concentration at half-maximal activity (AC50) is > 30 µM.
With `CC(=O)N1CCN(c2ccc(OCC3COC(Cn4ccnc4)(c4ccc(Cl)cc4Cl)O3)cc2)CC1` (stereo not drawn) [KETOCONAZOLE], the concentration at half-maximal activity (AC50) was 15 µM at Bile acid receptor [2]; > 30 µM in assay [3]; > 30 µM in assay [4]; > 10 µM on Bile acid receptor [5]; > 30 µM in assay [6]; > 30 µM on Bile acid receptor [7].

The record behind these values is ChEMBL document CHEMBL5291721, “A preclinical secondary pharmacology resource illuminates target-adverse drug reaction associations of marketed drugs” (Nat Commun, 2023).
